Measurements published in patent US20260274875A1, “[…] COMPOUNDS, PREPARATION METHOD AND USE THEREOF” (HC SYNTHETIC PHARMACEUTICAL CO., LTD., priority 2022, published 2026).
Values after ≈ are worked out from the molar mass of the structure shown. Like-named read-outs stand apart in the source and are kept apart here.

Experiments:
[1] = Solubility in water, methanol and isopropanol; type: physicochemical
Method: The solubility in water, methanol, and isopropanol of the compounds of the present disclosure and the comparative compounds were measured separately.

[2] = tested on: histamine-induced asthma in guinea pigs; experiment: Antiasthmatic effect on histamine-induced asthma in guinea pigs; type: in vivo, guinea pig; settings: 60 min after 1 mg/kg oral gavage; histamine hydrochloride spray; no asthma within 8 min counted as 8 min; X ± s, n = 5
Method: The time point at which the guinea pigs developed asthma was recorded. The time of convulsion and fall was taken as the latency period. Guinea pigs with a latency period exceeding 180 seconds were not selected. […] The guinea pigs were administered by oral gavage at a dose of 2 mL/kg·bw. Sixty minutes after the administration, the guinea pigs were placed in bell jars, and histamine hydrochloride solution was sprayed under the same conditions as in the previous selection. The latency period for the onset of asthma was recorded. […] The results were processed statistically.

[3] = tested on: isolated ileal smooth muscle of guinea pigs; experiment: Muscle tone of isolated ileal smooth muscle of guinea pigs (compound alone); set-up: species or system guinea pig; settings: 5 minutes after adding drug, no histamine; X ± s, n = 8
Method: (§1) The guinea pig was knocked unconscious with a wooden stick, and the abdomen was immediately dissected to separate the ileum about 15 cm in length. The contents of the intestinal segment were flushed with Tyrode's solution and placed in Tyrode's solution at a constant temperature of 37° C. for later use, and oxygen was supplied simultaneously. The experimental intestinal tract (1 cm in length) was cut and placed into 20 ml of Tyrode's solution at a constant temperature of 37° C. with a continuous oxygen supply. One end of the intestine was fixed on the ventilation hook and the other end was connected to the muscle tone transducer and led to the computer interface. The muscle tone value of the ileal smooth muscle was recorded with a BL system. The experiment was carried out after the intestinal segment contraction became stable. […] The operation was repeated 8 times. The antispasmodic percentage was calculated according to the following formula. [formula]

[4] = Accelerated stability test; type: physicochemical; settings: 40° C.±2° C., RH 75%±5%
Method: The compound of the present disclosure was placed at a temperature of 40° C.±2° C. and a relative humidity of 75%±5% for 6 months, and samples were taken to determine for the descriptions, related substances, and contents.

[5] = tested on: histamine-contracted isolated ileal smooth muscle of guinea pigs; experiment: Muscle tone of isolated ileal smooth muscle of guinea pigs contracted with histamine; set-up: species or system guinea pig; settings: 3 minutes after adding 0.05 mL compound to histamine-contracted ileum; x ± s, n = 8
Method: as §1, with “using” for “according to”, “equation.” for “formula. [formula]”

[6] = organic solvent or mixture, solvent isopropanol, read-out: Solubility, Isopropanol
[7] = organic solvent or mixture, solvent methanol, read-out: Solubility, Methanol
[8] = water, solvent water, read-out: Solubility, Water
[9] = methanol, organic solvent or mixture, solvent methanol, read-out: Solubility, Methanol
[10] = isopropanol, organic solvent or mixture, solvent isopropanol, read-out: Solubility, Isopropanol

| SMILES | solubility [1, 8] [mg/mL] | solubility [1, 9] [mg/mL] | solubility [1, 10] [mg/mL] | also measured |
| --- | --- | --- | --- | --- |
| O=P(O)(O)OCCN1CCC(=C2c3ccc(Cl)cc3CCc3cccnc32)CC1 [Compound III-4] | 28 (≈ 64.4 mM) | – | – | solubility [1, 6]: 22 mg/mL (≈ 50.6 mM); solubility [1, 7]: 38 mg/mL (≈ 87.4 mM) |
| O=P(O)(O)OCCN1CCC(=C2c3ccc(F)cc3CCc3cccnc32)CC1 [Compound III-5] | 28 (≈ 66.9 mM) | – | – | solubility [1, 6]: 22 mg/mL (≈ 52.6 mM); solubility [1, 7]: 40 mg/mL (≈ 95.6 mM) |
| O=P(O)(O)OCCN1CCC(=C2c3ccc(Br)cc3CCc3cccnc32)CC1 [Compound III-6] | 28 (≈ 58.4 mM) | – | – | solubility [1, 6]: 22 mg/mL (≈ 45.9 mM); solubility [1, 7]: 40 mg/mL (≈ 83.5 mM) |
| O=P(O)(O)OCCCN1CCC(=C2c3ccc(Cl)cc3CCc3cccnc32)CC1 [Compound III-7] | 30 (≈ 66.8 mM) | 40 (≈ 89.1 mM) | – | – |
| O=P(O)(O)OCCCN1CCC(=C2c3ccc(F)cc3CCc3cccnc32)CC1 [Compound III-8] | 30 (≈ 69.4 mM) | 40 (≈ 92.5 mM) | 22 (≈ 50.9 mM) | Post-administration latency period [2]: 370.94 ± 50.29 s |
| O=P(O)(O)OCCCN1CCC(=C2c3ccc(Br)cc3CCc3cccnc32)CC1 [Compound III-9] | 30 (≈ 60.8 mM) | 40 (≈ 81.1 mM) | 22 (≈ 44.6 mM) | – |
| O=P(O)(O)OCCCCN1CCC(=C2c3ccc(Cl)cc3CCc3cccnc32)CC1 [Compound III-10] | 30 (≈ 64.8 mM) | 43 (≈ 92.9 mM) | – | Antispasmodic percentage (%) [3]: 35.75 ± 19.99% |
| O=P(O)(O)OCCCCN1CCC(=C2c3ccc(F)cc3CCc3cccnc32)CC1 [Compound III-11] | 30 (≈ 67.2 mM) | 43 (≈ 96.3 mM) | 25 (≈ 56 mM) | Antispasmodic percentage (%) [3]: 31.58 ± 18.30% |
| O=P(O)(O)OCCCCN1CCC(=C2c3ccc(Br)cc3CCc3cccnc32)CC1 [Compound III-12] | 32 (≈ 63.1 mM) | 43 (≈ 84.8 mM) | 25 (≈ 49.3 mM) | – |
| O=P(O)(O)OCCCCCN1CCC(=C2c3ccc(Cl)cc3CCc3cccnc32)CC1 [Compound III-13] | 32 (≈ 67.1 mM) | 44 (≈ 92.3 mM) | – | – |
| O=P(O)(O)OCCCCCN1CCC(=C2c3ccc(F)cc3CCc3cccnc32)CC1 [Compound III-14] | 32 (≈ 69.5 mM) | 44 (≈ 95.6 mM) | 25 (≈ 54.3 mM) | Content ([4]; Month 2): 99.5%; Content ([4]; Month 3): 99.5% |
| O=P(O)(O)OCCCCCN1CCC(=C2c3ccc(Br)cc3CCc3cccnc32)CC1 [Compound III-15] | 32 (≈ 61.4 mM) | 44 (≈ 84.4 mM) | 25 (≈ 47.9 mM) | – |
| O=P(O)(O)OCOCCCN1CCC(=C2c3ccc(Cl)cc3CCc3cccnc32)CC1 [Compound III-17] | 30 (≈ 62.6 mM) | 42 (≈ 87.7 mM) | 25 (≈ 52.2 mM) | – |
| O=P(O)(O)OCOCCCCN1CCC(=C2c3ccc(Cl)cc3CCc3cccnc32)CC1 [Compound III-18] | 30 (≈ 60.9 mM) | 42 (≈ 85.2 mM) | 25 (≈ 50.7 mM) | Content ([4]; Month 3): 99.5% |
| O=P(O)(O)OCOCCCCCN1CCC(=C2c3ccc(Cl)cc3CCc3cccnc32)CC1 [Compound III-19] | 30 (≈ 59.2 mM) | 42 (≈ 82.8 mM) | 25 (≈ 49.3 mM) | – |
| O=P([O-])([O-])OCN1CCC(=C2c3ccc(Cl)cc3CCc3cccnc32)CC1.[Na+].[Na+] [Compound IV-1] | 432 | 44 | – | – |
| O=P([O-])([O-])OCCN1CCC(=C2c3ccc(Cl)cc3CCc3cccnc32)CC1.[K+].[K+] [Compound IV-2] | 389 | 23 | 1 | Content ([4]; Month 1): 99.6%; Content ([4]; Month 3): 99.5% |
| O=P([O-])([O-])OCCCCN1CCC(=C2c3ccc(Cl)cc3CCc3cccnc32)CC1.[Na+].[Na+] [Compound IV-4] | – | 20 | 1 | Content ([4]; Month 1): 99.6%; Content ([4]; Month 2): 99.6%; Content ([4]; Month 3): 99.6% |
| O=P(O)(O)OCCCCCN1CCC(=C2c3ccc(Cl)cc3CCc3cccnc32)CC1 [Compound IV-7] | – | – | – | Content ([4]; Month 3): 99.5% |
| O=P(O)(O)OCOCCN1CCC(=C2c3ccc(Cl)cc3CCc3cccnc32)CC1 [Compound IV-8] | – | – | – | Content ([4]; Month 3): 99.5%; Smooth muscle tone (g) After administration [5]: 1.19 ± 0.28 g |
| O=P([O-])([O-])OCOCCCN1CCC(=C2c3ccc(Cl)cc3CCc3cccnc32)CC1.[Na+].[Na+] [Compound IV-9] | 411 | 27 | 2 | Content ([4]; Month 1): 99.7%; Content ([4]; Month 2): 99.7%; Content ([4]; Month 3): 99.7% |
| O=P([O-])([O-])OCOCCCCN1CCC(=C2c3ccc(Cl)cc3CCc3cccnc32)CC1.[Na+].[Na+] [Compound IV-10] | 401 | 27 | 2 | – |
| O=P([O-])([O-])OCOCCCCCN1CCC(=C2c3ccc(Cl)cc3CCc3cccnc32)CC1.[Na+].[Na+] [Compound IV-11] | 390 | 27 | 2 | Smooth muscle tone (g) After administration [5]: 1.18 ± 0.28 g |
| OCCCCCCN1CCC(=C2c3ccc(Cl)cc3CCc3cccnc32)CC1 [Hydroxyhexyl desloratadine, Hydroxyhexyl Desloratadine] | – | – | – | Antispasmodic percentage (%) [5]: 58.30 ± 14.11% |
| OCCCCCN1CCC(=C2c3ccc(Cl)cc3CCc3cccnc32)CC1 [Hydroxypentyl desloratadine, Hydroxypentyl Desloratadine] | – | – | – | Antispasmodic percentage (%) [5]: 58.53 ± 12.34% |
| OCCCN1CCC(=C2c3ccc(Cl)cc3CCc3cccnc32)CC1 [Hydroxypropyl desloratadine, Hydroxypropyl Desloratadine] | – | – | – | Antispasmodic percentage (%) [5]: 58.77 ± 13.82% |
